PMC4578755, “Development of novel cellular histone-binding and chromatin-displacement assays for bromodomain drug discovery” (Epigenetics & Chromatin, 2015)

Key:
[1] = target: T1, GFP-tagged TRIM24 in HeLa cells (Homo sapiens, UniProt O15164); assay: GFP version of the in situ cell extraction assay; type: cell-based
T1 construct: PB-TRIM24 PHD and bromodomain of TRIM24; expressed in transfected cells; host or cells: HeLa
T1 sequence (O15164 810-1050 limits assumed): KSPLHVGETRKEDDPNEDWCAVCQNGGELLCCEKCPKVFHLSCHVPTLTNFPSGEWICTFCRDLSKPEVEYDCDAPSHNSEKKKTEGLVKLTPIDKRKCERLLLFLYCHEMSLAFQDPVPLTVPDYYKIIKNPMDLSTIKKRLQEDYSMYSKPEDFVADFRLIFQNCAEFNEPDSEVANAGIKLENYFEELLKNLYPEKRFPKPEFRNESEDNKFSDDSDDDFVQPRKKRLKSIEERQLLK
Text: In an HTS setting, we further simplified the in situ cell extraction procedure by replacing the indirect IF step (e.g., anti-FLAG) with cells engineered to express fluorescent moieties (e.g., GFP) fused to the protein target of interest (Additional file 1: Figure S5). In this format, the assay has minimal time and reagent costs associated with HTS operation, since no further liquid handling or processing steps are needed after detergent extraction and fixation. […] This is particularly noteworthy for two orthogonal assays that monitor either the displacement of TRIM24 from chromatin/nuclear structures or directly measure TRIM24/histone-H3 dissociation in cells.
OV90 or HeLa cells (20,000 cells/100 µL) were seeded into 96-well plates (Corning Costar #3603) using RPMI or DMEM medium, respectively, supplemented with 10 % FBS and grown overnight. Test agents were serially diluted in DMSO (with or without SAHA) to generate 10X master compound plates. From here, 11 µL was transferred into each well containing 100 µL of growth media followed by shaking on a rotation table (15 min, 300 rpm at RT) and incubation at 37 °C for 2 h. Plates were washed once with PBS (150 µL/well) and then with cold, freshly prepared Cytoskeleton (CSK) Buffer (10 mM PIPES, 300 mM Sucrose, 100 mM NaCl, 3 mM MgCl2; pH = 6.8). Immediately thereafter, soluble, non-chromatin-bound proteins were extracted by addition of cold CSK Buffer supplemented with 0.5 % Triton X-100 (150 µL per well) for 10 min at 4 °C followed by 4 % paraformaldehyde fixation (10 min at RT) (Additional file 1: Table S3). […]
number of fields and the number of cells in 96- and 384-well format that is enough for analysis.
Figure S5. HTS-friendly GFP-version of the in situ cell extraction assay. (A) In situ cell extraction […]
cells were treated with TRIM24i in 96-well plate using concentration range from 20 nM to 100
µM. […] EC50 curve was calculated by Harmony software during the scan. […]
Figure S6. […] Extraction buffer was added to the wells and each field of view was monitored every 3 minutes during 15 minutes. […]

[2] = target: T2, TRIM24-PB/histone H3 co-localization in HeLa TRIM24-PB cells (Homo sapiens, UniProt O15164); assay: Proximity ligation assay (PLA) TRIM24/histone H3; type: cell-based; details: SAHA treatment; Alexa-conjugated secondary antibodies
T2 construct: The FLAG-TRIM24-PB construct (residues 810–1050) was generated by PCR amplification; expressed in transfected cells
T2 sequence (O15164 810-1050): T1 sequence (O15164 810-1050 limits assumed)
Method: Hela cells expressing FLAG-TRIM24-PHD-Bromo-V5 (TRIM24-PB) (20 K/100 µL) were seeded into 96-well plates (Corning Costar #CLS3603) in DMEM media supplemented with 10 % FBS and grown overnight. After treatment with SAHA (5 µM, 2 h), plates were washed with PBS (150ul per well) and fixed with 4 % paraformaldehyde (10 min at RT). PLA was performed using Duolink® In situ Red Starter Kit Mouse/Goat (Sigma-Aldrich, DUO92103), according to manufacturer’s recommendation. Primary antibody pair was: Goat anti-V5 (1:200 dilution; Bethyl #A190-119A) and Mouse anti-histone H3 (1:4000 dilution; Active Motif, #39763). Following PLA, secondary antibody Alexa Fluor®594 Donkey Anti-Goat (Invitrogen #A-11056) and Alexa Fluor®488 Donkey Anti-Mouse (Invitrogen #A-21202) were used to measure the total levels of V5 and histone H3. Using the High-Content Screening System Operetta with 40× magnification, cell images from 25 fields in each well were taken in 4 channels (Alexa488, Alexa594, Alexa647 and Hoechst). […] For each gated cell, we calculated the mean signal intensity for histone H3 (Alexa488 in the nucleus minus Alexa488 in the cytoplasm); TRIM24 (Alexa594 in the nucleus minus the […] intensity in the cytoplasm); and the mean number for the PLA signal (number of spots in nucleus). […]

Row | SMILES | EC50 ([1]; HeLa cells expressing GFP-tagged TRIM24, 1 h incubation) [nM] | Displacement of TRIM24-GFP from chromatin ([1]; after extraction) | Time to displacement of TRIM24-GFP from chromatin ([1]; data not shown) [min] | Mean nuclei levels of TRIM24 [2]
1 | Cc1nc(S(=O)(=O)Nc2cc3c(cc2Oc2cccc(OCC(C)C)c2)n(C)c(=O)n3C)cn1C [IACS-6558, N-{1,3-dimethyl-6-[3-(2-methylpropoxy)phenoxy]-2-oxo-2,3-dihydro-1H-1,3-benzodiazol-5-yl}-1,2-dimethyl-1H-imidazole-4-sulfonamide] | 2300 | full displacement | ≤ 1 | –
2 | O=C(CCCCCCC(=O)Nc1ccccc1)NO [SAHA, Suberoylanilide Hydroxamic Acid] | – | – | – | did not change
